Legend:
[1] = biological target: Tyrosine-protein kinase JAK2 (Homo sapiens, UniProt O60674); experiment: Inhibition of JAK2 (unknown origin)
[2] = biological target: T1, Receptor-type tyrosine-protein kinase FLT3 (Homo sapiens, UniProt P36888); experiment: Inhibition of FLT3 (unknown origin)
T1 sequence (P36888 whole entry): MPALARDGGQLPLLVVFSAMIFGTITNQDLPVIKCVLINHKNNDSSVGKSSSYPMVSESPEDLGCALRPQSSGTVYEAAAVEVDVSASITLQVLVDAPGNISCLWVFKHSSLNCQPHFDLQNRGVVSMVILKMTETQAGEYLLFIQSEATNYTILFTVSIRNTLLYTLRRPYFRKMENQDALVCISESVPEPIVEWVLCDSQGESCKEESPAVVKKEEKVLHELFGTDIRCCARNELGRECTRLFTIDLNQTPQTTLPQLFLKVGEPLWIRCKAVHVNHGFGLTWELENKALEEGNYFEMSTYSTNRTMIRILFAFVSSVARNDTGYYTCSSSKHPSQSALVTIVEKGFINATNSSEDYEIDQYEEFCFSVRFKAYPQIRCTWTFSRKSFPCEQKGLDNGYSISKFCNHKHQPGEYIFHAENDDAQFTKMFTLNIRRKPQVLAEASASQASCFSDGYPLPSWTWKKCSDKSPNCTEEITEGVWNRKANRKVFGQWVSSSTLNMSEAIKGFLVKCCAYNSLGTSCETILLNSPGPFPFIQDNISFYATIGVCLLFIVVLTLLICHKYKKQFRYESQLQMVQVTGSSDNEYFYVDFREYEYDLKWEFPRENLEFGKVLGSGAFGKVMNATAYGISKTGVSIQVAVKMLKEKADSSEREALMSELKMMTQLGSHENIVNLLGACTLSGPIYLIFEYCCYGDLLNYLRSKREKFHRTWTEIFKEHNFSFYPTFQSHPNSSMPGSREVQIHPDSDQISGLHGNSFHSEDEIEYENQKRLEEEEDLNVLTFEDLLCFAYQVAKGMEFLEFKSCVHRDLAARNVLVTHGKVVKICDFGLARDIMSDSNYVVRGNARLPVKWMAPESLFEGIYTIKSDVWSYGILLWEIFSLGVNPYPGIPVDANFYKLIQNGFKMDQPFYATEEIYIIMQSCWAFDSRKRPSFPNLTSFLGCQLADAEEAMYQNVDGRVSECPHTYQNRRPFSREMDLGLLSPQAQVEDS

[3] = biological target: Vascular endothelial growth factor receptor 2 (Homo sapiens, UniProt P35968); experiment: Inhibition of KDR (unknown origin)
Sequence of Vascular endothelial growth factor receptor 2 (P35968 whole entry): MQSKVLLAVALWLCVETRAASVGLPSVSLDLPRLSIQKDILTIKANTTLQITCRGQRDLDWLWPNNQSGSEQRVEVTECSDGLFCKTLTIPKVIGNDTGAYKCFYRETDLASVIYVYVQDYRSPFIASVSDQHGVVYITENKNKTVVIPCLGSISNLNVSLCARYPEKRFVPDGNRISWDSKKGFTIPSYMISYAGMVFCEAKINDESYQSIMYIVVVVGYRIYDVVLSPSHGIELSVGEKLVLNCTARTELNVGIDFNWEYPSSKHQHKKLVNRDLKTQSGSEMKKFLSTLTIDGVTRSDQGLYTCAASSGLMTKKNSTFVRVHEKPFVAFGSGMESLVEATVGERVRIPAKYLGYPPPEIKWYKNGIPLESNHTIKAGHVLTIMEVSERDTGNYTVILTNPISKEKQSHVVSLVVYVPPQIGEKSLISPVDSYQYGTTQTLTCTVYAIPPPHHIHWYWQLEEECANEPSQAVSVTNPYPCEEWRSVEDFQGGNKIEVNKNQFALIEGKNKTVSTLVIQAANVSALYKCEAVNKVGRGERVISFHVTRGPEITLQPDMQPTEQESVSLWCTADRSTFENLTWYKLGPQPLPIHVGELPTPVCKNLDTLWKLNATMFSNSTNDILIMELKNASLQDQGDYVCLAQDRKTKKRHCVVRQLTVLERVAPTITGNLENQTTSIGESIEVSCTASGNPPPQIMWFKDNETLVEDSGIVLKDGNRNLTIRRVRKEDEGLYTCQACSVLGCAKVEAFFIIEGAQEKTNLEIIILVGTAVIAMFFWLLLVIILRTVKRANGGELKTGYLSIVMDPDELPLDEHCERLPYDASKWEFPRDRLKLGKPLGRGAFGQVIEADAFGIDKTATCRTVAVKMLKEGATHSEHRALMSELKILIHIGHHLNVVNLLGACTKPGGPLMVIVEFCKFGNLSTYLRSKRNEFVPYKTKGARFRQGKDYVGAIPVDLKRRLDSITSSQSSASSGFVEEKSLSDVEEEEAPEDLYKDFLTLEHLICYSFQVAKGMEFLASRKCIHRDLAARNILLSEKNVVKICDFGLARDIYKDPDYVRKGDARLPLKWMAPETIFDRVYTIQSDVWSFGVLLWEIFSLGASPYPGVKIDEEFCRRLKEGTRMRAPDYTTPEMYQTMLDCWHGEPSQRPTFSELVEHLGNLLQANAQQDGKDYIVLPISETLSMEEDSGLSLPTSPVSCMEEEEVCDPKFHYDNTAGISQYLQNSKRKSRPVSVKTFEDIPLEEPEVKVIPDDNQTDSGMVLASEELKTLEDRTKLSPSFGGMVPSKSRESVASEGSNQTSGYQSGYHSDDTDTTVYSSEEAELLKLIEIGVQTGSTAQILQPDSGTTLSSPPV

[4] = biological target: T2, Interleukin-1 receptor-associated kinase 4 (Homo sapiens, UniProt Q9NWZ3); experiment: Inhibition of IRAK4 (unknown origin)
T2 sequence (Q9NWZ3 whole entry): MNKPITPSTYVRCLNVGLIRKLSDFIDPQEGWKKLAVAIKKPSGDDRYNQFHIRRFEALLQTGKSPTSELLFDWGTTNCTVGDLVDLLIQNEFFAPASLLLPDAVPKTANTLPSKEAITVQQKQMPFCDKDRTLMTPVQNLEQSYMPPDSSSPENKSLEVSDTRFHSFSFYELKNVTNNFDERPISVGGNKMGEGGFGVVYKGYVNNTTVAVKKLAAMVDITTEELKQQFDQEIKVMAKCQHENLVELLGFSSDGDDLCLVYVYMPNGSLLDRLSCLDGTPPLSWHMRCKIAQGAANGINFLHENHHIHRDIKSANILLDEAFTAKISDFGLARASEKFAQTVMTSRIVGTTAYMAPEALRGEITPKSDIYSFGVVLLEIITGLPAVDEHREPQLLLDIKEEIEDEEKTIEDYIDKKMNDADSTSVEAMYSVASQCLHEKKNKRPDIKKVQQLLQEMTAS

[5] = biological target: Mitogen-activated protein kinase 10 (Homo sapiens, UniProt P53779); experiment: Inhibition of JNK3 (unknown origin)
Sequence of Mitogen-activated protein kinase 10 (P53779 whole entry): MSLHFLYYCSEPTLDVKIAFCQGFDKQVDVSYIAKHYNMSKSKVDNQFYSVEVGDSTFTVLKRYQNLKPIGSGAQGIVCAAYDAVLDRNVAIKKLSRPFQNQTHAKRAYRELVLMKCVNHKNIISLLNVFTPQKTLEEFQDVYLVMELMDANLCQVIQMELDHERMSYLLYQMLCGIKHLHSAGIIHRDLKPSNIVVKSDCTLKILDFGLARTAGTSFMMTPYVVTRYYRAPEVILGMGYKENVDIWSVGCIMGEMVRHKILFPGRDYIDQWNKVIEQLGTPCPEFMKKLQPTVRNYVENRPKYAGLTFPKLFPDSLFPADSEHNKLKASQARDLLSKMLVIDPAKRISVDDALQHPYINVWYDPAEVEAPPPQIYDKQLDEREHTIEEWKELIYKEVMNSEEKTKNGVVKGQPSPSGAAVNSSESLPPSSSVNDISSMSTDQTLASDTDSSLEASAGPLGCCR

[6] = biological target: Serine/threonine-protein kinase PLK1 (Homo sapiens, UniProt P53350); experiment: Inhibition of PLK (unknown origin)
Sequence of Serine/threonine-protein kinase PLK1 (P53350 whole entry): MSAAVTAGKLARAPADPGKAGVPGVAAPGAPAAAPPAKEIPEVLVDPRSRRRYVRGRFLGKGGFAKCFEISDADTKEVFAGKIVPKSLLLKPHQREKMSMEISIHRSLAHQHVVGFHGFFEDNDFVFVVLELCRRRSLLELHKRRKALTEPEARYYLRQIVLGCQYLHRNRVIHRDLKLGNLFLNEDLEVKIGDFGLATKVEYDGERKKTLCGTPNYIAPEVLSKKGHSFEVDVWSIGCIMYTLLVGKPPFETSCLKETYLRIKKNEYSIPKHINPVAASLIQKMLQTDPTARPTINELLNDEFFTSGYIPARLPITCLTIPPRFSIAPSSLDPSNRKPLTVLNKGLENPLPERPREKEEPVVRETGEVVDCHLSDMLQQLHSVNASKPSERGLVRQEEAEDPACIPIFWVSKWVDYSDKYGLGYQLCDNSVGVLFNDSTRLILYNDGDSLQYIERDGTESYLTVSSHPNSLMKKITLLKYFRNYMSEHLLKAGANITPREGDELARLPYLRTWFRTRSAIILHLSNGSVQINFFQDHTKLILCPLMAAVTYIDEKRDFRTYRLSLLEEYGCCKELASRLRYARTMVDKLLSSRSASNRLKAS

[7] = biological target: Glycogen synthase kinase-3 (Homo sapiens, UniProt P49840+P49841); experiment: Inhibition of GSK3 (unknown origin); assay type: protein assay
[8] = biological target: Proto-oncogene tyrosine-protein kinase Src (Homo sapiens, UniProt P12931); experiment: Inhibition of SRC (unknown origin)
[9] = biological target: Tyrosine-protein kinase SYK (Homo sapiens, UniProt P43405); experiment: Inhibition of SYK (unknown origin)
[10] = biological target: Hepatocyte growth factor receptor (Homo sapiens, UniProt P08581); experiment: Inhibition of MET (unknown origin)
[11] = biological target: Phosphatidylinositol 4,5-bisphosphate 3-kinase catalytic subunit alpha isoform (Homo sapiens, UniProt P42336); experiment: Inhibition of PI3Kalpha (unknown origin)
Sequence of Phosphatidylinositol 4,5-bisphosphate 3-kinase catalytic subunit alpha isoform (P42336 whole entry, canonical isoform): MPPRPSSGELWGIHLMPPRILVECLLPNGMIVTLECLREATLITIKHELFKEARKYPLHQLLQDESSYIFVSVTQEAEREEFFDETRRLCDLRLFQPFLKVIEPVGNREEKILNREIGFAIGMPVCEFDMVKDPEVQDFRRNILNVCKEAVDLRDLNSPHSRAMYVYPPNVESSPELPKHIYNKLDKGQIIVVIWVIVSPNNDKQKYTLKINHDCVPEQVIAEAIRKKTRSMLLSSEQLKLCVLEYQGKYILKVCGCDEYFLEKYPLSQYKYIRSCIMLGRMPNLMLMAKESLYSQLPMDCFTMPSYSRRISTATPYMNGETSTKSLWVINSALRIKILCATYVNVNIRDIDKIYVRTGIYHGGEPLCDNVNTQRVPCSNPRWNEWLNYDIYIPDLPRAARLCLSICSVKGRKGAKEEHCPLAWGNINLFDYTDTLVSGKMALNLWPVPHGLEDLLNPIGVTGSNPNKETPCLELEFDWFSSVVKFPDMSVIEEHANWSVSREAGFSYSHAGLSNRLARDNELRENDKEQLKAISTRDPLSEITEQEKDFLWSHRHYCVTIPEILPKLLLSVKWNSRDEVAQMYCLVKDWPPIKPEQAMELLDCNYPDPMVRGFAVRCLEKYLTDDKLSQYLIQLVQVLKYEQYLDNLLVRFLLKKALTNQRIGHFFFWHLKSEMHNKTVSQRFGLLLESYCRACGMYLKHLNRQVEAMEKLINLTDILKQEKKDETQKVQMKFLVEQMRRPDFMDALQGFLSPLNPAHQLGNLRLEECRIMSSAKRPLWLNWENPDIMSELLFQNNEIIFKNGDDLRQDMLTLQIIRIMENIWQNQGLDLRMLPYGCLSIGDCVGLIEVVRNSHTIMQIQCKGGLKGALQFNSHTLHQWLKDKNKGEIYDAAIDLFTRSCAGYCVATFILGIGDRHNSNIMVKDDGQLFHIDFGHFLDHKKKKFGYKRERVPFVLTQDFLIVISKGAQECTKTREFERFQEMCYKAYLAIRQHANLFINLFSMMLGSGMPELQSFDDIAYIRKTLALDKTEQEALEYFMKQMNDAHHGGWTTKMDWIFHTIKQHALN

[12] = biological target: cAMP-dependent protein kinase catalytic subunit alpha (Homo sapiens, UniProt P17612); experiment: Inhibition of PKAa (unknown origin)
[13] = biological target: Cyclin-dependent kinase 2 (Homo sapiens, UniProt P24941); experiment: Inhibition of CDK2 (unknown origin)
Influenza A virus [14] = experiment: Antiviral activity against influenza A virus A/PR/8/34 strain incubated with MDCK cells assessed as reduction of viral RNA level equal to 1% of control level after 72 hrs by branched DNA assay; assay type: functional, organism-based; details: A/Puerto Rico/8/1934(H1N1)
[15] = biological target: Phosphatidylinositol 4,5-bisphosphate 3-kinase catalytic subunit beta isoform (Homo sapiens, UniProt P42338); experiment: Inhibition of PI3Kbeta (unknown origin)
Influenza A virus [16] = experiment: Antiviral activity against Influenza A virus A/PR/8/34 strain incubated with MDCK cells assessed as cell protection after 72 hrs by phenotypic cell protection assay; assay type: functional, organism-based; details: A/Puerto Rico/8/1934(H1N1)
[17] = biological target: Phosphatidylinositol 4,5-bisphosphate 3-kinase catalytic subunit gamma isoform (Homo sapiens, UniProt P48736); experiment: Inhibition of PI3Kgamma (unknown origin)
[18] = biological target: Rho-associated protein kinase (Homo sapiens, UniProt O75116+Q13464); experiment: Inhibition of ROCK (unknown origin); assay type: protein-complex assay
[19] = biological target: T3, Phosphatidylinositol 4,5-bisphosphate 3-kinase catalytic subunit delta isoform (Homo sapiens, UniProt O00329); experiment: Inhibition of PI3Kdelta (unknown origin)
T3 sequence (O00329 whole entry): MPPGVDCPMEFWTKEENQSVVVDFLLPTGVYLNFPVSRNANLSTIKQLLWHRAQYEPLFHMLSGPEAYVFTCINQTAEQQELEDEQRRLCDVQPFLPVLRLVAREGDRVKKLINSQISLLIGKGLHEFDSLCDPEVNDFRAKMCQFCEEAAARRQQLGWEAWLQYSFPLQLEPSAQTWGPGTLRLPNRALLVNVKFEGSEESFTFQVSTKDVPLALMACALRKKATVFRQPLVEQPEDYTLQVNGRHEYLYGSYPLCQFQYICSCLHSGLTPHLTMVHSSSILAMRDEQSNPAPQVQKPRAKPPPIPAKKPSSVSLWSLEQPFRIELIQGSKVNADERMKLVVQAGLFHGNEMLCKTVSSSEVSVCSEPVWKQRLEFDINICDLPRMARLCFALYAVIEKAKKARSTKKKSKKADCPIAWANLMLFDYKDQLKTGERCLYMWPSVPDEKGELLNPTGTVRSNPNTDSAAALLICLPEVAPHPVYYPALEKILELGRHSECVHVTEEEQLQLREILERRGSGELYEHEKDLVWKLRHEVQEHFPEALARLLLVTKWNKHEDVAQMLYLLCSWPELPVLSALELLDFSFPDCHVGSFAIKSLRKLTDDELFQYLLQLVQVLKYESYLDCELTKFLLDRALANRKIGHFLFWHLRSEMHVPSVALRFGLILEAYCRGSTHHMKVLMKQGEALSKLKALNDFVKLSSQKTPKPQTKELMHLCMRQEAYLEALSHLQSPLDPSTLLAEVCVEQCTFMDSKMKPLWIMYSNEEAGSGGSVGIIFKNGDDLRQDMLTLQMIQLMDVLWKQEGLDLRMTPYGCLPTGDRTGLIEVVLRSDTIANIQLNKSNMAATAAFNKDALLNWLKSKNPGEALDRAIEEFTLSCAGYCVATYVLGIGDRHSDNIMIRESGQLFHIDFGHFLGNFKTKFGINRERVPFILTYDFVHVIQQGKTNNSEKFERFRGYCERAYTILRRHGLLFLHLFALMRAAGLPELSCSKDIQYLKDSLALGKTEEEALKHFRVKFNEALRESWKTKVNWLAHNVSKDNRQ

Sequence of Tyrosine-protein kinase JAK2 (O60674 whole entry): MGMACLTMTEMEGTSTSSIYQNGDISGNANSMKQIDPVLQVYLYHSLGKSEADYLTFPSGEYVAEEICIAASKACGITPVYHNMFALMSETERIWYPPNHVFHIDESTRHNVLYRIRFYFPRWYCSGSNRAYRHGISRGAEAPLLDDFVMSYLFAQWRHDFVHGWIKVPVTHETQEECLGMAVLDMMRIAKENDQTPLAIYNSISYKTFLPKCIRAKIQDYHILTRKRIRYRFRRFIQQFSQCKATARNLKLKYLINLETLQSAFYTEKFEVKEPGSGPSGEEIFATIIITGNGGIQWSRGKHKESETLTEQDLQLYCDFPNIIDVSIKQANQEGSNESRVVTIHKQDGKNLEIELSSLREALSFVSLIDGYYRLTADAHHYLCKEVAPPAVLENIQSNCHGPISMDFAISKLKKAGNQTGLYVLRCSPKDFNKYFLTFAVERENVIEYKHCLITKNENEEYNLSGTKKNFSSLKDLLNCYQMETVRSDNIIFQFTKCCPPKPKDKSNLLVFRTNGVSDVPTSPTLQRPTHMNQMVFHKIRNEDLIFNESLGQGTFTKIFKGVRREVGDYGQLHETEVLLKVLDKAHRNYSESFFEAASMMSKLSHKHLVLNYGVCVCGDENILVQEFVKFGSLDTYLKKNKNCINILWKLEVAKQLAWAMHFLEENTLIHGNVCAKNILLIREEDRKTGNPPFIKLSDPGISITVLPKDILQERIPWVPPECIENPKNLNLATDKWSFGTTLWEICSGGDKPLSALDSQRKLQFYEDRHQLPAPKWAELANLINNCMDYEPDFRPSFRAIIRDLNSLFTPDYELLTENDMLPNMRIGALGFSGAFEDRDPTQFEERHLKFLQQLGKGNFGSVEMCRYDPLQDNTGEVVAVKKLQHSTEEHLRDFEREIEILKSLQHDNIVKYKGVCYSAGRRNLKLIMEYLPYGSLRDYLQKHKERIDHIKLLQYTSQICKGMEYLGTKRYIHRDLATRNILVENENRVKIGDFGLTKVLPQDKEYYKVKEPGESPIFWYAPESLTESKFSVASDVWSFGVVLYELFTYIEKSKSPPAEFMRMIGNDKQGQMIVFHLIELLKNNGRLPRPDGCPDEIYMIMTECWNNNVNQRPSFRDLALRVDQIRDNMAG

SMILES	Ki [1] [µM]	Ki [2] [µM]	Ki [3] [µM]	Ki [4] [µM]	Ki [5] [µM]	Ki [6] [µM]	Ki [7] [µM]	Ki [8] [µM]	Ki [9] [µM]	Ki [10] [µM]	Ki [11] [µM]	Ki [12] [µM]	Ki [13] [µM]	EC50 (Influenza A virus [14]) [µM]	EC99 (Influenza A virus [14]) [µM]	Ki [15] [µM]	IC50 (Influenza A virus [16]) [µM]	Ki [17] [µM]	Ki [18] [µM]	Ki [19] [µM]
Fc1cnc2[nH]cc(-c3ncc(F)c(N[C@H]4C5CCC(CC5)[C@@H]4c4nnn[nH]4)n3)c2c1 (mixture of isomers)	> 4	> 4	> 4	> 4	> 4	> 4	> 4	> 4	> 4	> 4	1.8	> 4	> 4	0.038	0.18	> 4	0.025	2.9	> 4	> 4
O=P(O)(O)[C@H]1C2CCC(CC2)[C@@H]1Nc1nc(-c2c[nH]c3ncc(F)cc23)ncc1F (mixture of isomers)	> 4	1.1	> 4	> 4	> 4	> 4	> 4	> 4	> 4	> 4	> 4	> 4	> 4	0.051	0.29	> 4	0.091	> 4	> 4	> 4
O=P(O)(O)CC[C@H]1C2CCC(CC2)[C@@H]1Nc1nc(-c2c[nH]c3ncc(F)cc23)ncc1F (mixture of isomers)	0.62	> 4	> 4	> 4	> 4	0.32	0.12	> 4	> 4	> 4	0.85	> 4	> 4	0.33	2.1	> 4	0.2	0.4	0.25	3.1
Oc1cc([C@H]2C3CCC(CC3)[C@@H]2Nc2nc(-c3c[nH]c4ncc(F)cc34)ncc2F)no1 (mixture of isomers)	0.2	0.8	> 4	> 4	> 4	1	0.06	> 4	> 4	> 4	0.88	0.59	> 4	0.011	0.062	> 4	0.072	0.75	> 4	> 4
CC(=O)NS(=O)(=O)[C@H]1C2CCC(CC2)[C@@H]1Nc1nc(-c2c[nH]c3ncc(F)cc23)ncc1F (mixture of isomers)	> 4	2.8	> 4	> 4	> 4	> 4	0.31	> 4	> 4	> 4	> 4	> 4	> 4	0.009	0.16	> 4	0.019	1.5	> 4	> 4
Oc1cc([C@H]2C3CCC(CC3)[C@@H]2Nc2nc(-c3c[nH]c4ncc(F)cc34)ncc2F)on1 (mixture of isomers)	> 4	> 4	> 4	> 4	> 4	> 4	1.6	> 4	> 4	> 4	1.3	> 4	> 4	0.002	0.033	> 4	0.001	0.69	> 4	> 4
O=c1nc([C@H]2C3CCC(CC3)[C@@H]2Nc2nc(-c3c[nH]c4ncc(F)cc34)ncc2F)[nH]o1 (mixture of isomers)	> 4	> 4	> 4	> 4	> 4	> 4	> 4	> 4	> 4	> 4	> 4	> 4	> 4	0.029	0.14	> 4		> 4	> 4	> 4
O=C(O)[C@H]1C2CCC(CC2)[C@@H]1Nc1nc(-c2c[nH]c3ncc(F)cc23)ncc1F [PIMODIVIR]	> 4	> 4					1.6							0.002	0.011		0.002			
